{
  "source": "patent EP4186514A1",
  "about": "“PHARMACEUTICAL COMPOSITION FOR PREVENTING OR TREATING CHOLANGITIS OR LIVER DISEASE CAUSED BY CHOLANGITIS COMPRISING ADENOSINE DERIVATIVE” (Future Medicine Co., Ltd., priority 2021, dated 2023)",
  "key": {"[1]": {"experiment": "Plasma stability, human plasma", "format": "in vitro ADME", "experimental": "In order to test the physicochemical properties of the adenosine derivative of the inventive concept, experiments were conducted on the compound of the formula A in vitro, and the results are shown in Table 3. Plasma stability and protein binding were measured using rat and human plasma."}, "[2]": {"experiment": "Storage stability of oral administration agent in 0.5 wt % methylcellulose (UPLC)", "format": "physicochemical", "experimental": "0.5 wt % methylcellulose, which can be used as an excipient for oral administration, was added to the compound of the formula A, sonicated and homogenized, and then divided into a group to be stored at room temperature or at 4° C., and after 1, 3, 7, and 10 days, the stability was measured by comparing the concentration with 0.5% methyl cellulose as the control group using Waters UPLC and he results are shown in Table 12."}, "[3]": {"molecular_target": "hERG channel protein (Homo sapiens, UniProt Q12809)", "sequence (Q12809 whole entry)": "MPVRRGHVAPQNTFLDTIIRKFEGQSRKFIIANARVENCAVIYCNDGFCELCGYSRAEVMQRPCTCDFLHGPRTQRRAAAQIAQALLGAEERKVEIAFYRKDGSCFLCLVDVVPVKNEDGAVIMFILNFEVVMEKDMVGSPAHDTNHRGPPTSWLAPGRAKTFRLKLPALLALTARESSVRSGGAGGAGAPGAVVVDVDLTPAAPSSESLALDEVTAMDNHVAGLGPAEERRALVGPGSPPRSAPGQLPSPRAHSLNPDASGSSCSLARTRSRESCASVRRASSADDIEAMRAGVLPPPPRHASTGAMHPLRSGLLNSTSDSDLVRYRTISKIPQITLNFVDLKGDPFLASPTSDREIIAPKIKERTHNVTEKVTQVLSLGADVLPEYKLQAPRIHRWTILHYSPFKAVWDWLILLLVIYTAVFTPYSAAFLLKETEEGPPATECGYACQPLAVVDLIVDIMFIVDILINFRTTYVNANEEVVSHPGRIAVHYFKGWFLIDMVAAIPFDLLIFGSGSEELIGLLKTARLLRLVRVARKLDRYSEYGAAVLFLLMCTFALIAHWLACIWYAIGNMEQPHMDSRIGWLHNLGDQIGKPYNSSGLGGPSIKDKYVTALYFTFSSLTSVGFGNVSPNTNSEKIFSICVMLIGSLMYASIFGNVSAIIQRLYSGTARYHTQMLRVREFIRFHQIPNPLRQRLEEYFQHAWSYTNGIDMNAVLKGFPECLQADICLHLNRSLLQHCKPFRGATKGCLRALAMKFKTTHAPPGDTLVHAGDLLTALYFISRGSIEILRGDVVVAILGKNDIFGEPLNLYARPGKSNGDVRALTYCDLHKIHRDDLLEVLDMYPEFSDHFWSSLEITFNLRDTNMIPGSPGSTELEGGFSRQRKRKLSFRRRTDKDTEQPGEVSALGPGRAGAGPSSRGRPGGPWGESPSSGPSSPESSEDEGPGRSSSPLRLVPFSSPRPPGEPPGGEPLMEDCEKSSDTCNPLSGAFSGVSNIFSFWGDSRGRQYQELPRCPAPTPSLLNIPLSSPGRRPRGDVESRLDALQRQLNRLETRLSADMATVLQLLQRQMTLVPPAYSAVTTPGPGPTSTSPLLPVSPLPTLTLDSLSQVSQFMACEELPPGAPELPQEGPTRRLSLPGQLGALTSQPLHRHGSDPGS", "experiment": "hERG ligand binding assay (fluorescence polarization)", "source_text": "In order to test the hERG ligand binding assay of the compound of the formula A, a non-electrophysiological method was used to evaluate heart stability by evaluating fluorescence polarization according to the degree of hERG channel protein binding of a red fluorescent hERG channel ligand tracer."}, "[4]": {"test_system": "ICR mice", "experiment": "Toxicity after intraperitoneal injection, mice", "format": "in vivo", "details": "intraperitoneal 20, 10 and 1 mg/kg", "protocol": "The Adenosine Derivative of the present invention were assayed for cytotoxicity in animals."}, "[5]": {"test_system": "each cell line", "experiment": "Cytotoxicity, Cyto X cell viability assay kit", "format": "cell-based", "details": "summary Table 11"}, "[6]": {"experiment": "Cytotoxicity, Cyto X cell viability assay kit", "format": "cell-based", "details": "in each cell line"}, "[7]": {"experiment": "Pharmacokinetic test in mice (Experimental Example 5)", "format": "in vivo", "details": "male, ICR, mouse, plasma, oral administration of 10 mg/kg, read-out: half-life T1/2 (converted)", "experimental": "In order to test the ADME properties of the adenosine derivative of the inventive concept after oral administration, pharmacokinetic properties of the compound of the formula A were measured in vivo. […] Intravenous administration was performed through a tube inserted into the femoral vein, and oral administration was performed using oral gavage. [Table 4] [table] After the administration, the experimental animals' blood was taken at predetermined time intervals for 24 hours. Then, the blood was centrifuged to separate plasma. The plasma samples were pretreated with a suitable organic solvent, and then the concentration of the plasma samples was analyzed by LC-MS/MS. The blood concentration-time data of the compound of the formula A was analyzed using WinNonlin (Pharsight, USA), and graphs of the blood concentration-time data are shown in FIGS. 5 through 9. The results of noncompartmental pharmacokinetic parameters calculated from the blood concentration-time data are shown in Tables 5 through 9. In FIGS. 5 through 9, I.V. represents an intravenous administration group, P.O. represents an oral administration group, and the definition of each parameter in Tables 5 through 9 is shown in Table 10. FIG. 7 and Table 7 show a graph and parameter values obtained from the blood concentration-time data of Experimental Example 5. […] Thus, the adenosine derivative is suitable for oral administration."}, "[8]": {"test_system": "histidine-requiring Salmonella (strains TA98, TA100, TA1535 and TA1537) and tryptophan-requiring Escherichia coli (strain WP2uvrA (pKM101))", "format": "cell-based", "experimental": "In order to test the genotoxicity of the compound of the formula A, the gene mutagenicity of the compound of the formula A was evaluated in the presence and absence of metabolic activation by using histidine-requiring Salmonella (strains TA98, TA100, TA1535 and TA1537) and tryptophan-requiring Escherichia coli (strain WP2uvrA (pKM101))."}, "[9]": {"experiment": "Pharmacokinetic test in dogs (Experimental Example 6)", "format": "in vivo", "details": "dog, plasma, maximum (Experimental Example 6), read-out: half-life T1/2", "experimental": "In order to test the ADME properties of the adenosine derivative of the inventive concept after oral administration, pharmacokinetic properties of the compound of the formula A were measured in vivo.\nIntravenous administration was performed through a tube inserted into the femoral vein, and oral administration was performed using oral gavage.\nAfter the administration, the experimental animals' blood was taken at predetermined time intervals for 24 hours. Then, the blood was centrifuged to separate plasma. The plasma samples were pretreated with a suitable organic solvent, and then the concentration of the plasma samples was analyzed by LC-MS/MS. The blood concentration-time data of the compound of the formula A was analyzed using WinNonlin (Pharsight, USA), and graphs of the blood concentration-time data are shown in FIGS. 5 through 9. The results of noncompartmental pharmacokinetic parameters calculated from the blood concentration-time data are shown in Tables 5 through 9. In FIGS. 5 through 9, I.V. represents an intravenous administration group, P.O. represents an oral administration group, and the definition of each parameter in Tables 5 through 9 is shown in Table 10.\nFIG. 8 and Table 8 show a graph and parameter values obtained from the blood concentration-time data of Experimental Example 6 (6-1, 6-2 and 6-3). […]"}},
  "data": [
    {"smiles": "O[C@@H]1[C@H](O)CS[C@H]1n1cnc2c(NCc3cccc(Cl)c3)nc(Cl)nc21", "note": "[Example 2, (2R,3R,4S)-2-(2-chloro-6-(3-chlorobenzylamino)-9H-purin-9-yl)tetrahydrothiophen-3,4-diol]", "values": [
      {"measurement": "Plasma stability", "setting": "[1]", "result": 98.9},
      {"measurement": "Stability (%)", "setting": "[2]; Stored at 4°C, After 1 day, 200 µg/ml", "result": "118±21.4", "unit": "%"},
      {"measurement": "Stability (%)", "setting": "[2]; Stored at 4°C, After 1 day, 1000 µg/ml", "result": "76.5±11.7", "unit": "%"},
      {"measurement": "Stability (%)", "setting": "[2]; Stored at 4°C, After 1 day, 3000 µg/ml", "result": "84.8±17.9", "unit": "%"},
      {"measurement": "Stability (%)", "setting": "[2]; Stored at 4°C, After 3 days, 200 µg/ml", "result": "125±40.2", "unit": "%"},
      {"measurement": "Stability (%)", "setting": "[2]; Stored at 4°C, After 3 days, 1000 µg/ml", "result": "87.6±9.26", "unit": "%"},
      {"measurement": "Stability (%)", "setting": "[2]; Stored at 4°C, After 3 days, 3000 µg/ml", "result": "94.8±2.55", "unit": "%"},
      {"measurement": "Stability (%)", "setting": "[2]; Stored at 4°C, After 7 days, 200 µg/ml", "result": "88.3±17.3", "unit": "%"},
      {"measurement": "Stability (%)", "setting": "[2]; Stored at 4°C, After 7 days, 1000 µg/ml", "result": "80.1±27.7", "unit": "%"},
      {"measurement": "Stability (%)", "setting": "[2]; Stored at 4°C, After 7 days, 3000 µg/ml", "result": "89.7±8.30", "unit": "%"},
      {"measurement": "Stability (%)", "setting": "[2]; Stored at 4°C, After 10 days, 200 µg/ml", "result": "93.8±44.8", "unit": "%"},
      {"measurement": "Stability (%)", "setting": "[2]; Stored at 4°C, After 10 days, 1000 µg/ml", "result": "79.5±22.0", "unit": "%"},
      {"measurement": "Stability (%)", "setting": "[2]; Stored at 4°C, After 10 days, 3000 µg/ml", "result": "99.0±3.87", "unit": "%"},
      {"measurement": "Stability (%)", "setting": "[2]; Stored at RT, After 1 day, 200 µg/ml", "result": "84.3±4.10", "unit": "%"},
      {"measurement": "Stability (%)", "setting": "[2]; Stored at RT, After 1 day, 1000 µg/ml", "result": "82.7±16.3", "unit": "%"},
      {"measurement": "Stability (%)", "setting": "[2]; Stored at RT, After 1 day, 3000 µg/ml", "result": "90.5±6.44", "unit": "%"},
      {"measurement": "Stability (%)", "setting": "[2]; Stored at RT, After 3 days, 200 µg/ml", "result": "76.3±8.12", "unit": "%"},
      {"measurement": "Stability (%)", "setting": "[2]; Stored at RT, After 3 days, 1000 µg/ml", "result": "82.7±37.0", "unit": "%"},
      {"measurement": "Stability (%)", "setting": "[2]; Stored at RT, After 3 days, 3000 µg/ml", "result": "80.5±5.01", "unit": "%"},
      {"measurement": "Stability (%)", "setting": "[2]; Stored at RT, After 7 days, 200 µg/ml", "result": "80.9±14.6", "unit": "%"},
      {"measurement": "Stability (%)", "setting": "[2]; Stored at RT, After 7 days, 1000 µg/ml", "result": "75.4±6.66", "unit": "%"},
      {"measurement": "Stability (%)", "setting": "[2]; Stored at RT, After 7 days, 3000 µg/ml", "result": "101±13.2", "unit": "%"},
      {"measurement": "Stability (%)", "setting": "[2]; Stored at RT, After 10 days, 200 µg/ml", "result": "90.3±23.2", "unit": "%"},
      {"measurement": "Stability (%)", "setting": "[2]; Stored at RT, After 10 days, 1000 µg/ml", "result": "94.2±9.17", "unit": "%"},
      {"measurement": "Stability (%)", "setting": "[2]; Stored at RT, After 10 days, 3000 µg/ml", "result": "92.2±2.17", "unit": "%"},
      {"measurement": "inhibition rate (hERG ligand binding)", "setting": "[3]; 10 µM of the compound", "result": "≤ 50", "unit": "%"},
      {"measurement": "Toxicity, hERG ligand binding assay evaluation", "setting": "[3]; summary Table 11", "result": "Not detected"},
      {"measurement": "weight gain or feed intake versus control group", "setting": "[4]", "result": "No difference"},
      {"measurement": "death", "setting": "[4]; observation for 24 hrs", "result": "No death was observed"},
      {"measurement": "Toxicity, Cytotoxicity evaluation", "setting": "[5]", "result": "Not detected"},
      {"measurement": "IC50", "setting": "[6]", "result": "≥ 10", "unit": "µM"},
      {"measurement": "half-life", "setting": "[7]", "result": "~3.61", "unit": "h"},
      {"measurement": "number of back-mutant colonies versus negative control group", "setting": "[8]; all doses of each strain, regardless of the metabolic activation", "result": "did not exceed twice the number of back-mutant colonies of the negative control group"},
      {"measurement": "dose-dependent increase of back-mutant colonies", "setting": "[8]; each strain, presence and absence of metabolic activation", "result": "no dose-dependent increase was observed"},
      {"measurement": "Toxicity, Genotoxicity evaluation", "setting": "[8]; summary Table 11", "result": "Not detected"},
      {"measurement": "half-life", "setting": "[9]", "result": "≥ 5.53", "unit": "h"}
    ]}
  ]
}
